Assay results reported in US8652514B2, “Antimicrobial peptides” (priority 2009, dated 2014).
Where a SMILES comes first, the peptide text is derived from it. Bridges are numbered along the chain shown (N, C = ends). [ ]: non-standard residue; d: D form. Phe(ol) = N[C@H](CO)Cc1ccccc1; Aib = CC(C)(N)C(=O)O

Tests used:
[1] = Pore-forming activity: dissipation of a membrane potential in azolectin liposomes
Protocol: The minimal inhibitory concentration (MIC) was determined according to the method of Hancock (Hancock, R. E. W. Sep. 19, 1999, posting date. [Online.] Hancock Laboratory Methods. Department of Microbiology and Immunology, University of British Columbia, British Columbia, Canada. [Antibiotics and Antimicrobial Peptides: MIC Determination by Microtitre Broth Dilution Method, last accessed September 21st.]). Permeabilization of bacterial membranes and pore-forming activity were assayed as previously described (Herbst, R., Ott, C., Jacobs, T., Marti, T., Marciano-Cabral, F., Leippe, M. Pore-forming polypeptides of the pathogenic protozoon Naegleria fowleri. J. Biol. Chem. 2002. 277:22353-22360).
(§1) To investigate the mode of action of Alvinellacine, we used the fluorescent dye SYTOX-Green® and either the Gram-positive Bacillus megaterium or the Gram-negative E. coli (FIG. 3). […] We also measured the pore-forming activity of Alvinellacine to further characterize its mode of action by using a minimalistic membrane system. More precisely, we monitored the dissipation of a membrane potential induced in liposomes composed of azolectin, a crude phospho lipid mixture from soy bean. Pore-forming activity was detected at final concentrations up to 0.5 nM, whereas the positive control Alamethicine gave a signal at 0.1 nM.

[2] = tested on: E. coli; assay: Permeabilization of bacterial membranes (SYTOX-Green); type: cell-based, Escherichia coli; details: Gram-negative E. coli, pH 7.4, measured 120 minutes after addition
Protocol: (§2) FIG. 3 presents the permeabilization of Gram-positive bacteria (Bacillus megaterium) and Gram-negative bacteria (Escherichia coli) after intended use of the Alvinellacine and two other AMPs (Cecropin originated from pork and Magainin originated from amphibian). These experiences were carried out at pH 7.4. The permeabilization of bacteria was measured 10 minutes after addition of each AMP for B. megaterium, while the same measurement was done after 120 minutes after addition of each AMP for E. coli.
(§3) The minimal inhibitory concentration (MIC) was determined according to the method of Hancock (Hancock, R. E. W. Sep. 19, 1999, posting date. [Online.] Hancock Laboratory Methods. Department of Microbiology and Immunology, University of British Columbia, British Columbia, Canada. [Antibiotics and Antimicrobial Peptides: MIC Determination by Microtitre Broth Dilution Method, last accessed September 21st.]). […]
as §1, with “Pore-forming activity was detected at final concentrations up to 0.5 nM, whereas the positive control Alamethicine gave a signal at 0.1 nM.” left out

[3] = tested on: Bacillus megaterium; assay: as above; type: cell-based; details: Gram-positive Bacillus megaterium, pH 7.4, measured 10 minutes after addition
Protocol: as §2, §3
as §1, with “Pore-forming activity was detected at final concentrations up to 0.5 nM, whereas the positive control Alamethicine gave a signal at 0.1 nM.” left out

[4] = Permeabilization of liposomes filled with a fluorescent reagent; details: positive control Alamethicin
Protocol: FIG. 2 presents the ability of the Alvinellacine to create pores in liposomes, herein used to mimic bacterial membranes.
The mechanism of antibacterial activity was determined using liposomes filled with a fluorescent reagent. Liposomes consist of a bi-layer of phospholipids herein used to mimic the bacterial membrane. Permeabilization of the liposomes would result in a release of the internal compound, thus reacting with the medium and producing a fluorescent light that can be measured by spectrometry. The test is carried out with both negative and positive controls. Alamethicin, which is an antibiotic known to create pores in the bacterial membrane, is used as the positive control. The negative control is a solution of liposomes, intended for measurement of background noise (FIG. 2).

| SMILES | final concentration at which pore-forming activity was detected [1] | membrane-permeabilizing activity compared with Cecropin P1 and Magainin II [2] | membrane-permeabilizing activity compared with the two positive controls (Cecropin P1, Magainin II) [3] | permeabilization of liposomes (mechanism of antibacterial activity) [4] |
| --- | --- | --- | --- | --- |
| CC(=O)NC(C)(C)C(=O)N1CCC[C@H]1C(=O)NC(C)(C)C(=O)N[C@@H](C)C(=O)NC(C)(C)C(=O)N[C@@H](C)C(=O)N[C@@H](CCC(N)=O)C(=O)NC(C)(C)C(=O)N[C@H](C(=O)NC(C)(C)C(=O)NCC(=O)N[C@@H](CC(C)C)C(=O)NC(C)(C)C(=O)N1CCC[C@H]1C(=O)N[C@H](C(=O)NC(C)(C)C(=O)NC(C)(C)C(=O)N[C@@H](CCC(=O)O)C(=O)N[C@@H](CCC(N)=O)C(=O)N[C@H](CO)Cc1ccccc1)C(C)C)C(C)C [Alamethicine, Alamethicin, reference compound] (Ac-[Aib]P[Aib]A[Aib]AQ[Aib]V[Aib]GL[Aib]PV[Aib][Aib]EQ[Phe(ol)]) | 0.1 nM |  |  |  |
| CSCC[C@@H]1NC(=O)[C@@H]2CSSC[C@H](NC(=O)[C@H](CCCNC(=N)N)NC(=O)[C@H]([C@@H](C)O)NC(=O)[C@H](Cc3ccc(O)cc3)NC(=O)[C@@H](NC(=O)CNC(=O)[C@@H](N)CCCNC(=N)N)CSSC[C@@H](C(=O)N[C@H](C(=O)O)[C@@H](C)O)NC(=O)[C@H](C(C)C)NC(=O)[C@H](CCCNC(=N)N)NC1=O)C(=O)N[C@@H](Cc1c[nH]c3ccccc13)C(=O)N[C@@H](CCCCN)C(=O)N[C@@H](C(C)C)C(=O)NCC(=O)N[C@@H](CCCNC(=N)N)C(=O)N[C@@H](CC(N)=O)C(=O)NCC(=O)N[C@@H](CCCNC(=N)N)C(=O)N[C@@H](C(C)C)C(=O)N2 [Alvinellacine] (H-RGCYTRCWKVGRNGRVCMRVCT-OH; disulfide 3-21, 7-17 (inferred); N-terminus and C-terminus assumed) | up to 0.5 nM | over one order of magnitude higher | lower activity | permealibilizes the bi-layer of phospholipids |
